pIC50: −log10 of the molar value.
Molecular target: human recombinant H-PGDS (Homo sapiens, UniProt O60760)
Assay: Fluorescence Intensity h-PGDS TBA Enzyme Assay
Assay type: biochemical
Settings: 1:175,000 human recombinant H-PGDS, highest inhibitor concentration typically 1 μM
Outline: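 Recombinant human H-PGDS preincubated 10 min at room temperature with inhibitor in 100 mM Tris pH 8.0, 100 μM MgCl2, 2.5 mM glutathione, 0.5% DMSO; 5.0 μM PGH2 added, stopped after 42 s with FeCl2/citric acid. Remaining PGH2 measured as MDA–TBA fluorescence (ex 530/em 565 nm); IC50 by 4-parameter fit, 11 concentrations.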

human recombinant H-PGDS, sequence (O60760 whole entry): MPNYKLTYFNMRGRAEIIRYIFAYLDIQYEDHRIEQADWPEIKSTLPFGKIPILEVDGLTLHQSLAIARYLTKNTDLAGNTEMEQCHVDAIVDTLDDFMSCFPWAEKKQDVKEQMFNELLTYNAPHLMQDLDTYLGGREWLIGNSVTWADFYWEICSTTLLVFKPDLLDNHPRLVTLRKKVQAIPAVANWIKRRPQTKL

| Structure (SMILES) | pIC50 |
| --- | --- |
| Cc1nnc(CNC(=O)c2ccc(-c3cccc(F)c3)nc2)o1 [Example 96, 6-(3-Fluorophenyl)-N-[(5-methyl-1,3,4-oxadiazol-2-yl)methyl]nicotinamide] | 6.76 |
| CN1CCCCC1CNC(=O)c1ccc(-c2cccc(F)c2)nc1 (centres unmarked) [Example 97, 6-(3-Fluorophenyl)-N-[(1-methylpiperidin-2-yl)methyl]nicotinamide] | 6.82 |
| Cc1cc(C(F)(F)F)nc(CNC(=O)c2ccc(-c3cccc(F)c3)nc2)n1 [Example 98, 6-(3-Fluorophenyl)-N-{[4-methyl-6-(trifluoromethyl)pyrimidin-2-yl]methyl}nicotinamide] | 6.84 |
| CCN(CC)CCCCNC(=O)c1ccc(-c2cccc(F)c2)nc1 [Example 102, N-[4-(Diethylamino)butyl]-6-(3-fluorophenyl)nicotinamide] | 7.06 |
| CN1CCN(CC(CNC(=O)c2ccc(-c3cccc(F)c3)nc2)c2ccccc2)CC1 (centres unmarked) [Example 103, 6-(3-Fluorophenyl)-N-[3-(4-methylpiperazin-1-yl)-2-phenylpropyl]nicotinamide] | 6.50 |
| O=C(NCC1CN(CCc2ccccn2)C(=O)CO1)c1ccc(-c2cccc(F)c2)nc1 (centres unmarked) [Example 105, 6-(3-Fluorophenyl)-N-{[5-oxo-4-(2-pyridin-2-ylethyl)morpholin-2-yl]methyl}nicotinamide] | 7.23 |
| O=C(NCC1CCCN(C2CCOCC2)C1)c1ccc(-c2cccc(F)c2)nc1 (centres unmarked) [Example 110, 6-(3-Fluorophenyl)-N-{[1-(tetrahydro-2H-pyran-4-yl)piperidin-3-yl]methyl}nicotinamide] | 7.06 |
| CN1CCN(CCCNC(=O)c2ccc(-c3cccc(F)c3)nc2)CC1 [Example 111, 6-(3-Fluorophenyl)-N-[3-(4-methylpiperazin-1-yl)propyl]nicotinamide] | 6.97 |
| CN1CCC(CNC(=O)c2ccc(-c3cccc(F)c3)nc2)CC1 [Example 113, 6-(3-Fluorophenyl)-N-[(1-methylpiperidin-4-yl)methyl]nicotinamide] | 6.83 |
| CCN1CCCC(CNC(=O)c2ccc(-c3cccc(F)c3)nc2)C1 (centres unmarked) [Example 114, N-[(1-Ethylpiperidin-3-yl)methyl]-6-(3-fluorophenyl)nicotinamide] | 6.63 |
| Cc1cc(O)nc(CNC(=O)c2ccc(-c3cccc(F)c3)nc2)n1 [Example 115, 6-(3-Fluorophenyl)-N-[(4-hydroxy-6-methylpyrimidin-2-yl)methyl]nicotinamide] | 7.02 |
| CC(C)N1CCCC(CNC(=O)c2ccc(-c3cccc(F)c3)nc2)C1 (centres unmarked) [Example 116, 6-(3-Fluorophenyl)-N-[(1-isopropylpiperidin-3-yl)methyl]nicotinamide] | 6.79 |
| CC(C)N1CCC(CNC(=O)c2ccc(-c3cccc(F)c3)nc2)CC1 [Example 117, 6-(3-Fluorophenyl)-N-[(1-isopropylpiperidin-4-yl)methyl]nicotinamide] | 6.97 |
| Cc1nccn1CCNC(=O)c1ccc(-c2cccc(F)c2)nc1 [Example 119, 6-(3-Fluorophenyl)-N-[2-(2-methyl-1H-imidazol-1-yl)ethyl]nicotinamide] | 7.22 |
| O=C(NC1C(=O)NCCc2ccccc21)c1ccc(-c2cccc(F)c2)nc1 (centres unmarked) [Example 120, 6-(3-Fluorophenyl)-N-(2-oxo-2,3,4,5-tetrahydro-1H-3-benzazepin-1-yl)nicotinamide] | 7.17 |
| CN1CCC(O)(CNC(=O)c2ccc(-c3cccc(F)c3)nc2)CC1 [Example 121, 6-(3-Fluorophenyl)-N-[(4-hydroxy-1-methylpiperidin-4-yl)methyl]nicotinamide] | 6.89 |
| Cc1cc(-c2cnc(C(C)(C)C)nc2CNC(=O)c2ccc(-c3cccc(F)c3)nc2)on1 [Example 122, N-{[2-tert-Butyl-5-(3-methylisoxazol-5-yl)pyrimidin-4-yl]methyl}-6-(3-fluorophenyl)nicotinamide] | < 6.00 |
| C[C@H](O)CNC(=O)c1ccc(-c2cccc(F)c2)nc1 [Example 129, 6-(3-Fluorophenyl)-N-[(2S)-2-hydroxypropyl]nicotinamide] | 7.04 |
| Cc1c[nH]c(CCNC(=O)c2ccc(-c3cccc(F)c3)nc2)n1 [Example 130, 6-(3-Fluorophenyl)-N-[2-(4-methyl-1H-imidazol-2-yl)ethyl]nicotinamide] | 7.40 |
| O=C(NCc1nc(-c2ccccc2)no1)c1ccc(-c2cccc(F)c2)nc1 [Example 133, 6-(3-Fluorophenyl)-N-[(3-phenyl-1,2,4-oxadiazol-5-yl)methyl]nicotinamide] | 7.23 |
| CC(C)(C)OCCNC(=O)c1ccc(-c2cccc(F)c2)nc1 [Example 134, N-(2-tert-Butoxyethyl)-6-(3-fluorophenyl)nicotinamide] | 7.32 |
| C=CCNC(=O)c1ccc(-c2cccc(F)c2)nc1 [Example 135, N-Allyl-6-(3-fluorophenyl)nicotinamide] | 7.33 |
| Cc1nnc(C(C)NC(=O)c2ccc(-c3cccc(F)c3)nc2)[nH]1 (centres unmarked) [Example 138, 6-(3-Fluorophenyl)-N-[1-(5-methyl-4H-1,2,4-triazol-3-yl)ethyl]nicotinamide] | 6.54 |

The remaining compounds from weak to strong by pIC50, led by results:

| pIC50 | Structure (SMILES) |
| --- | --- |
| 7.41 | O=C(NCC1(O)CCSCC1)c1ccc(-c2cccc(F)c2)nc1 [Example 139, 6-(3-Fluorophenyl)-N-[(4-hydroxytetrahydro-2H-thiopyran-4-yl)methyl]nicotinamide] |
| 7.46 | Cc1cc(=O)[nH]c(N2CCC(CNC(=O)c3ccc(-c4cccc(F)c4)nc3)CC2)n1 [Example 109, 6-(3-Fluorophenyl)-N-{[1-(4-methyl-6-oxo-1,6-dihdyropyrimidin-2-yl)piperidin-4-yl]methyl}nicotinamide] |
| 7.46 | CC(C)N1CCN(CCCNC(=O)c2ccc(-c3cccc(F)c3)nc2)C(=O)C1=O [Example 106, 6-(3-Fluorophenyl)-N-[3-(4-isopropyl-2,3-dioxopiperazin-1-yl)propyl]nicotinamide] |
| 7.47 | CC(Cn1cccn1)NC(=O)c1ccc(-c2cccc(F)c2)nc1 (centres unmarked) [Example 126, 6-(3-Fluorophenyl)-N-[1-methyl-2-(1H-pyrazol-1-yl)ethyl]nicotinamide] |
| 7.50 | O=C(NCc1nncn1C1CCCCC1)c1ccc(-c2cccc(F)c2)nc1 [Example 99, N-[(4-Cyclohexyl-4H-1,2,4-triazol-3-yl)methyl]-6-(3-fluorophenyl)nicotinamide] |
| 7.52 | CC(C)c1cc(CNC(=O)c2ccc(-c3cccc(F)c3)nc2)on1 [Example 127, 6-(3-Fluorophenyl)-N-[(3-isopropylisoxazol-5-yl)methyl]nicotinamide] |
| 7.53 | CC(C)(C)C(=O)CNC(=O)c1ccc(-c2cccc(F)c2)nc1 [Example 108, N-(3,3-Dimethyl-2-oxobutyl)-6-(3-fluorophenyl)nicotinamide] |
| 7.53 | Cc1cc(=O)[nH]c(N2CCCC(CNC(=O)c3ccc(-c4cccc(F)c4)nc3)C2)n1 (centres unmarked) [Example 112, 6-(3-Fluorophenyl)-N-{[1-(4-methyl-6-oxo-1,6-dihydropyrimidin-2-yl)piperidin-3-yl]methyl}nicotinamide] |
| 7.55 | CC(NC(=O)c1ccc(-c2cccc(F)c2)nc1)C1CC1 (centres unmarked) [Example 128, N-(1-Cyclopropylethyl)-6-(3-fluorophenyl)nicotinamide] |
| 7.57 | Cc1cc(C)n(CCCNC(=O)c2ccc(-c3cccc(F)c3)nc2)n1 [Example 131, N-[3-(3,5-Dimethyl-1H-pyrazol-1-yl)propyl]-6-(3-fluorophenyl)nicotinamide] |
| 7.62 | Cc1c(C(C)NC(=O)c2ccc(-c3cccc(F)c3)nc2)cnn1C (centres unmarked) [Example 125, N-[1-(1,5-Dimethyl-1H-pyrazol-4-yl)ethyl]-6-(3-fluorophenyl)nicotinamide] |
| 7.74 | Cc1cc(C(F)(F)F)nc(CCNC(=O)c2ccc(-c3cccc(F)c3)nc2)n1 [Example 124, 6-(3-Fluorophenyl)-N-{2-[4-methyl-6-(trifluoromethyl)pyrimidin-2-yl]ethyl}nicotinamide] |
| 7.76 | O=C(NCC1CCCN(c2ncccn2)C1)c1ccc(-c2cccc(F)c2)nc1 (centres unmarked) [Example 101, 6-(3-Fluorophenyl)-N-[(1-pyrimidin-2-ylpiperidin-3-yl)methyl]nicotinamide] |
| 7.81 | O=C(NC(c1cccc(Cl)c1)c1nn[nH]n1)c1ccc(-c2cccc(F)c2)nc1 (centres unmarked) [Example 123, N-[(3-Chlorophenyl)(2H-tetrazol-5-yl)methyl]-6-(3-fluorophenyl)nicotinamide] |
| 7.81 | O=C(NCC1CCCN(c2nc(C(F)F)cc(=O)[nH]2)C1)c1ccc(-c2cccc(F)c2)nc1 (centres unmarked) [Example 107, N-({1-[4-(Difluoromethyl)-6-oxo-1,6-dihydropyrimidin-2-yl]piperidin-3-yl}methyl)-6-(3-fluorophenyl)nicotinamide] |
| 7.89 | O=C(NCc1cn2ccccc2n1)c1ccc(-c2cccc(F)c2)nc1 [Example 100, 6-(3-Fluorophenyl)-N-(imidazo[1,2-a]pyridin-2-ylmethyl)nicotinamide] |
| 7.95 | CCOC(=O)CCCCCNC(=O)c1ccc(-c2cccc(F)c2)nc1 [Example 137, Ethyl 6-({[6-(3-fluorophenyl)pyridin-3-yl]carbonyl}amino)hexanoate] |
| 8.20 | Cc1ncsc1CCNC(=O)c1ccc(-c2cccc(F)c2)nc1 [Example 132, 6-(3-Fluorophenyl)-N-[2-(4-methyl-1,3-thiazol-5-yl)ethyl]nicotinamide] |
| 8.28 | O=C(NCCCc1ccccn1)c1ccc(-c2cccc(F)c2)nc1 [Example 118, 6-(3-Fluorophenyl)-N-(3-pyridin-2-ylpropyl)nicotinamide] |
| 8.45 | O=C(NC1CCCCNC1=O)c1ccc(-c2cccc(F)c2)nc1 (centres unmarked) [Example 136, 6-(3-Fluorophenyl)-N-(2-oxoazepan-3-yl)nicotinamide] |
| 8.46 | O=C(NCCNc1nccn2ccnc12)c1ccc(-c2cccc(F)c2)nc1 [Example 104, 6-(3-Fluorophenyl)-N-[2-(imidazo[1,2-a]pyrazin-8-ylamino)ethyl]nicotinamide] |

From patent publication US20110306597A1, “Nicotinamide Derivatives” (priority 2008, published 2011)
